Data: patent publication US20160303009A1, “HAIR CARE COMPOSITION” (CONOPCO, INC., D/B/A UNILEVER, priority 2013, published 2016)

Tested on: trypsin
Assay: Trypsin activity, fluorescence assay (EnzChek Protease Assay Kit E6639)
Format: biochemical
Conditions: trypsin 100 μg/ml, 50 mM Tris-HCl pH 8.0
Protocol: Typsin activity was assessed using a commercial assay employing fluorescence measurement (EnzChek® Protease Assay Kit E6639 from Molecular Probes). The assayed solutions contained trypsin (100 μg/ml) and various amounts of the zinc salts in 50 mM Tris-HCl (pH 8.0).

Row | Compound | Protease inhibition (salt concentration 0.0001 wt %) [%] | Protease inhibition (salt concentration 0.001 wt %) [%] | Protease inhibition (salt concentration 0.01 wt %) [%] | Protease inhibition (salt concentration 0.1 wt %) [%] | Protease inhibition (salt concentration 1 wt %) [%]
1 | [Cl-].[Cl-].[Zn+2] [Zinc Chloride] | 7 | 20 | 69 | 93 | 96
2 | O.O.O.O.O.O.O.O=S(=O)([O-])[O-].[Zn+2] [Zinc Sulfate Heptahydrate] | 4 | 14 | 33 | 92 | 93
3 | Zinc Gluconate | −4 | 10 | 28 | 94 | 94
